In ChEMBL document CHEMBL5365461, “Degradation of Cyclin-Dependent Kinase 9/Cyclin T1 by Optimized Microtubule-Associated Protein 1 Light Chain 3 Beta-Recruiting Coumarin Analogs” (J Med Chem, 2023):
Active and inactive are the calls of the source. The calls are words filed in the database; no cut-off is given here.

Assays:
[1] = target: Cyclin-dependent kinase 9 (Homo sapiens) (UniProt P50750); test: (§1) Inhibition of GST-fused human full-length CDK9 (1 to 372(end) residues)/N-terminal GST-fused His-tagged human full-length CyclinT1 (1 to 726(end) residues) expressed in baculovirus expression system at 10 nM using CDK7/9 tide as substrate incubated for 120 mins in presence of ATP by ADP-Glo Kinase assay relative to control
[2] = target: Cyclin-dependent kinase 9 (Homo sapiens) (UniProt P50750); test: as §1, with “100” for “10”
[3] = test system: U2932; test: Cytotoxicity against human U2932 cells assessed as inhibition of cell growth measured after 72 hrs by CCK-8 assay; type: functional, cell-based; conditions: U2932, 72 h
[4] = target: Cyclin-dependent kinase 9 (Homo sapiens) (UniProt P50750); test: Induction of CDK9 55 kDa degradation in human U2932 cells assessed as maximal efficacy at 1 to 1000 nM by immunoblotting analysis relative to control; type: cell-based; conditions: dose 1-1000 nM
[5] = target: Cyclin-dependent kinase 9 (Homo sapiens) (UniProt P50750); test: Induction of CDK9 42 kDa degradation in human U2932 cells at 100 nM by immunoblotting analysis; type: cell-based; conditions: time 1-24 hrs, TDE = time-dependent effect
[6] = test system: A2780; test: Cytotoxicity against human A2780 cells assessed as inhibition of cell growth measured after 72 hrs by CCK-8 assay; type: functional, cell-based
[7] = test system: U2932; test: Downregulation of RNAP2 phosphorylation at serine 5 residue in human U2932 cells at 10 to 1000 nM incubated for 6 hrs by immunoblotting analysis; type: functional, cell-based; conditions: dose 10-1000 nM
[8] = target: Cyclin-dependent kinase 9 (Homo sapiens) (UniProt P50750); test: Induction of CDK9 42 kDa degradation in human U2932 cells at 500 nM incubated for 12 hrs in presence of BafA1 by Co-immunoprecipitation analysis; type: cell-based
[9] = target: Cyclin-dependent kinase 9 (Homo sapiens) (UniProt P50750); test: Induction of CDK9 degradation in LC3B knockout HEK293T cells at 100 nM incubated for 24 hrs by immunoblotting analysis; type: cell-based
[10] = Observed clearance in CD-1 mouse at 1 mg/kg, iv measured after 24 hrs by LC-MS/MS analysis; type: ADME, organism-based; conditions: in vivo
[11] = test system: MV4-11; test: Antitumor activity against human MV4-11 cells xenografted in mouse assessed as reduction in tumor growth at 5 mg/kg, ip qd measured after 15 days; type: functional, organism-based; conditions: time 15.0 day
[12] = test system: MV4-11; test: Antitumor activity against human MV4-11 cells xenografted in mouse assessed as tumor growth inhibition at 5 mg/kg, ip qd measured after 15 days; type: functional; conditions: MV4-11, 360 h, time 15 day, read-out: TGI
[13] = Toxicity in mouse xenografted with human MV4-11 cells assessed as change in body weight at 5 mg/kg, ip qd measured after 15 days; type: organism-based; conditions: in vivo, 360 h, time 15 day
[14] = test system: MV4-11; test: Antitumor activity against human MV4-11 cells xenografted in mouse assessed as reduction in CDK9 level in tumor at 5 mg/kg, ip qd measured after 15 days by immunoblotting analysis; type: functional, organism-based; conditions: time 15.0 day
[15] = test system: MV4-11; test: Antitumor activity against human MV4-11 cells xenografted in mouse assessed as reduction in c-Myc level in tumor at 5 mg/kg, ip qd measured after 15 days by immunoblotting analysis; type: functional, organism-based; conditions: time 15.0 day
[16] = test system: MV4-11; test: Antitumor activity against human MV4-11 cells xenografted in mouse assessed as reduction in Mcl level in tumor at 5 mg/kg, ip qd measured after 15 days by immunoblotting analysis; type: functional, organism-based; conditions: time 15.0 day
[17] = target: CDK9/cyclin T1 (Homo sapiens) (UniProt O60563+P50750); test: Induction of CDK9/CyclinT1 degradation in human U2932 cells at 100 nM measured after 24 hrs by immunoblotting analysis; type: cell-based
[18] = target: Cyclin-dependent kinase 1 (Homo sapiens) (UniProt P06493); test: Induction of CDK1 degradation in human U2932 cells at 100 nM incubated for 24 hrs by immunoblotting analysis; type: cell-based
Chain of Cyclin-dependent kinase 1 (Homo sapiens) (P06493 whole entry, looked up): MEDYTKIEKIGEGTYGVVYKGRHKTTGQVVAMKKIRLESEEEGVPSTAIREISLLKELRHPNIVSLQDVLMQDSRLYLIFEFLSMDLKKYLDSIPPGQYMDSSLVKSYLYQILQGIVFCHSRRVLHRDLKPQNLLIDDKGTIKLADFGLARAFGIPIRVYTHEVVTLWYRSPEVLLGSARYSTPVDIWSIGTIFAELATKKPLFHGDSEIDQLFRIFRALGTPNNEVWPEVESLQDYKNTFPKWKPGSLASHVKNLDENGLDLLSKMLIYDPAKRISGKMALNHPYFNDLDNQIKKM

Chain of Cyclin-dependent kinase 9 (Homo sapiens) (P50750 whole entry, the tested form may be a part): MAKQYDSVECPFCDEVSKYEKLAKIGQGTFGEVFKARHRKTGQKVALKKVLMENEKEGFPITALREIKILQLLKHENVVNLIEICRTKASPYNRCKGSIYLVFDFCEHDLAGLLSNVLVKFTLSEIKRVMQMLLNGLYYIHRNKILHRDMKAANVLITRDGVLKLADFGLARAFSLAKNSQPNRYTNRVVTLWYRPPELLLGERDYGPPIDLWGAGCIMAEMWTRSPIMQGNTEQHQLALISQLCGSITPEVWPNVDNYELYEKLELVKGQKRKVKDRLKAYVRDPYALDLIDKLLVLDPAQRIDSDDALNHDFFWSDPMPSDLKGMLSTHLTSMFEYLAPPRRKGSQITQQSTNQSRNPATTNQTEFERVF

SMILES | inhibition [1] | inhibition [2] | IC50 [3] | Emax [4] | Activity [5] | Activity [6] | Activity [7] | Activity [8] | Activity [9] | clearance [10] | Activity [11] | inhibition in vivo at 5 mg/kg [12] | Activity [13] | Activity [14] | Activity [15] | Activity [16] | Activity [17] | Activity [18]
Cc1cc(=O)oc2cc(O)cc(OCCCCCN3CCC(C(=O)Nc4ncc(SCc5ncc(C(C)(C)C)o5)s4)CC3)c12 | 1% | 54% | 45 nM | 54.8% | Tde | Active | inactive | Active | inactive | 229 mL/min/kg | Active | 52% | Non-Toxic | Active | Active | Active |  | 
Cc1cc(=O)oc2cc(OCCCN3CCC(C(=O)Nc4ncc(SCc5ncc(C(C)(C)C)o5)s4)CC3)cc(O)c12 | 1% | 65% | 45 nM | 46% | Tde | Active | inactive | Active | inactive | 140 mL/min/kg |  |  |  |  |  |  | Active | Active
